Experimental data taken from ChEMBL document CHEMBL3286226, “Discovery of thienopyrimidine-based FLT3 inhibitors from the structural modification of known IKKβ inhibitors” (Bioorg Med Chem Lett, 2014).

Experiments:
[1] = target: T1, Inhibitor of nuclear factor kappa-B kinase subunit beta (Homo sapiens, UniProt O14920)
T1 sequence (O14920 whole entry): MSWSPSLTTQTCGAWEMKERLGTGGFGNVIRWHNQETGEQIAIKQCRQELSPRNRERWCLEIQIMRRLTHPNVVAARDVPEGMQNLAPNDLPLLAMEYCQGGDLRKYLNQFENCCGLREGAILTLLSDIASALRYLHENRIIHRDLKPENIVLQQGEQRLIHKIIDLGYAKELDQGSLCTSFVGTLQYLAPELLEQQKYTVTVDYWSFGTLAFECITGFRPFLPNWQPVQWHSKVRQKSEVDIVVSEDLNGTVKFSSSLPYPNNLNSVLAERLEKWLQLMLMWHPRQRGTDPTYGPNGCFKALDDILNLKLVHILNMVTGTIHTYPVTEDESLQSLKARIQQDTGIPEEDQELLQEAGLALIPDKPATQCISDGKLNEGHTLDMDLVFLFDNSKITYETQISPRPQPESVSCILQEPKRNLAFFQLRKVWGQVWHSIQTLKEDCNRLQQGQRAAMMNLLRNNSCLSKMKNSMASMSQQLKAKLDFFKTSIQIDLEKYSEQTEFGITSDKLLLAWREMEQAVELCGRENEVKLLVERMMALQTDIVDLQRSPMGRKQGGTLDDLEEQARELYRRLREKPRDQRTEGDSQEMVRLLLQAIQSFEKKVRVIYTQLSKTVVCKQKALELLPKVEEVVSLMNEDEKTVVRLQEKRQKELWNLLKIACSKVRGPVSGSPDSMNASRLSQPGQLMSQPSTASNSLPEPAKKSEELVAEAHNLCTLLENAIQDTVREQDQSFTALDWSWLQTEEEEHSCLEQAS
Description: Inhibition of IKKbeta kinase (unknown origin) by Lance ULight system

RAW264.7 [2] = test: cells; settings: Mus musculus
Description: (§1) Antiinflammatory activity against mouse RAW264.7 cells assessed as reduction of LPS-induced TNF-alpha production

[3] = target: T1, Inhibitor of nuclear factor kappa-B kinase subunit beta; remark: listed apart in the source
Description: (§2) Inhibition of IKKbeta kinase (unknown origin) by Radioisotope system

RAW264.7 [4] = test: cells; settings: Mus musculus; remark: listed apart in the source
Description: Antiinflammatory activity against mouse RAW264.7 cells assessed as reduction of LPS-induced NO production

[5] = target: Mitogen-activated protein kinase 13 (Homo sapiens) (UniProt O15264); test: Inhibition of human SAPK4 assessed as residual activity at 10 uM relative to control
[6] = target: Ribosomal protein S6 kinase alpha-5 (Homo sapiens) (UniProt O75582); test: Inhibition of human MSK1 assessed as residual activity at 10 uM relative to control
Sequence of Ribosomal protein S6 kinase alpha-5 (Homo sapiens) (O75582 whole entry, looked up): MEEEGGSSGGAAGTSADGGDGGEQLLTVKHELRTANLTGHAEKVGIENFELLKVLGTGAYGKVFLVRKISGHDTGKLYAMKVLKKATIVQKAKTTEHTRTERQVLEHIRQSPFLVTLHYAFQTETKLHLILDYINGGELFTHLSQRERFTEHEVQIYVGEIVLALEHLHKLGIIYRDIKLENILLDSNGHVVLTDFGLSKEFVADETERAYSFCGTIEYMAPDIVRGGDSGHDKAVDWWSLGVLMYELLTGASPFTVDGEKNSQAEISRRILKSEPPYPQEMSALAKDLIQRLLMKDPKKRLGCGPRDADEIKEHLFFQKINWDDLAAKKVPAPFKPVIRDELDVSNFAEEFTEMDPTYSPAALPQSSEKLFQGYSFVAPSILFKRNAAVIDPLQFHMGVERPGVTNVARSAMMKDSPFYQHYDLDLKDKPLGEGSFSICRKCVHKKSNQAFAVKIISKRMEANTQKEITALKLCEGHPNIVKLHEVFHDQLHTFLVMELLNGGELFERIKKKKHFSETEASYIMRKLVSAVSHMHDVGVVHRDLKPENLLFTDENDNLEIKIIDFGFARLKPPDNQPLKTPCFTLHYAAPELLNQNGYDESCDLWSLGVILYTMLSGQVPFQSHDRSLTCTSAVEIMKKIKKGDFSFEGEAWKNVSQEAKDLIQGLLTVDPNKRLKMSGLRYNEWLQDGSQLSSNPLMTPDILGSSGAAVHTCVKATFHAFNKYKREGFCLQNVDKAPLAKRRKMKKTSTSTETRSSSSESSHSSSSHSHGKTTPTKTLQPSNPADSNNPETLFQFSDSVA

[7] = target: Dual specificity mitogen-activated protein kinase kinase 7 (Homo sapiens) (UniProt O14733); test: Inhibition of human MKK7beta assessed as residual activity at 10 uM relative to control
[8] = target: Mitogen-activated protein kinase 8 (Homo sapiens) (UniProt P45983); test: Inhibition of human JNK1alpha1 assessed as residual activity at 10 uM relative to control
Sequence of Mitogen-activated protein kinase 8 (Homo sapiens) (P45983 whole entry): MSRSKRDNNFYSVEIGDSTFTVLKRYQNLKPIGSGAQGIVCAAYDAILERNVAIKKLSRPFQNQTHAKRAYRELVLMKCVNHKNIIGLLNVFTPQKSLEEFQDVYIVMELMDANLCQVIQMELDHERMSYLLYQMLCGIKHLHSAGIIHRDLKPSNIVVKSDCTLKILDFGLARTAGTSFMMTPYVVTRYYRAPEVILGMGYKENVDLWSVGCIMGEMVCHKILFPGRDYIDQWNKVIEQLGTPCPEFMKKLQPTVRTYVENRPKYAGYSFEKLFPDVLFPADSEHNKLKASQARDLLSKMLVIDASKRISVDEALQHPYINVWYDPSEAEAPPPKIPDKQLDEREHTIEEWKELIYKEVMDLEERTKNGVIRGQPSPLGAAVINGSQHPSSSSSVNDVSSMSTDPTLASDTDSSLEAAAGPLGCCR

[9] = target: Non-receptor tyrosine-protein kinase TYK2 (Homo sapiens) (UniProt P29597); test: Inhibition of human TYK2 assessed as residual activity at 10 uM relative to control
[10] = target: Dual specificity mitogen-activated protein kinase kinase 6 (Homo sapiens) (UniProt P52564); test: Inhibition of human MKK6 assessed as residual activity at 10 uM relative to control
[11] = target: Receptor-type tyrosine-protein kinase FLT3 (Homo sapiens) (UniProt P36888); test: Inhibition of human Flt3 assessed as residual activity at 10 uM relative to control
[12] = target: MAP kinase-activated protein kinase 2 (Homo sapiens) (UniProt P49137); test: Inhibition of human MAPKAP-K2 assessed as residual activity at 10 uM relative to control
Sequence of MAP kinase-activated protein kinase 2 (Homo sapiens) (P49137 whole entry, looked up): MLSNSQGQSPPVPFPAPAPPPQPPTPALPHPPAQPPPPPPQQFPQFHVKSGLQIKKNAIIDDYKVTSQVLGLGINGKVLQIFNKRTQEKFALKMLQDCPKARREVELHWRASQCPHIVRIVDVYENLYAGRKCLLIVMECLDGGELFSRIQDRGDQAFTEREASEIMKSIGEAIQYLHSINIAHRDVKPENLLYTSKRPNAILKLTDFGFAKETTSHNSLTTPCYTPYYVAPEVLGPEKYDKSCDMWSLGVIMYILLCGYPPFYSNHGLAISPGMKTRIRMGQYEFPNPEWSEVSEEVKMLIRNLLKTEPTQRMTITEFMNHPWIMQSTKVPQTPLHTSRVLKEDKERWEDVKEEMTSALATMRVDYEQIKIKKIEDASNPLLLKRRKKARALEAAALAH

[13] = target: Rho-associated protein kinase 2 (Homo sapiens) (UniProt O75116); test: Inhibition of human ROCK-2 assessed as residual activity at 10 uM relative to control
[14] = target: Dual specificity mitogen-activated protein kinase kinase 4 (Mus musculus) (UniProt P47809); test: Inhibition of mouse MKK4 assessed as residual activity at 10 uM relative to control
Sequence of Dual specificity mitogen-activated protein kinase kinase 4 (Mus musculus) (P47809 whole entry): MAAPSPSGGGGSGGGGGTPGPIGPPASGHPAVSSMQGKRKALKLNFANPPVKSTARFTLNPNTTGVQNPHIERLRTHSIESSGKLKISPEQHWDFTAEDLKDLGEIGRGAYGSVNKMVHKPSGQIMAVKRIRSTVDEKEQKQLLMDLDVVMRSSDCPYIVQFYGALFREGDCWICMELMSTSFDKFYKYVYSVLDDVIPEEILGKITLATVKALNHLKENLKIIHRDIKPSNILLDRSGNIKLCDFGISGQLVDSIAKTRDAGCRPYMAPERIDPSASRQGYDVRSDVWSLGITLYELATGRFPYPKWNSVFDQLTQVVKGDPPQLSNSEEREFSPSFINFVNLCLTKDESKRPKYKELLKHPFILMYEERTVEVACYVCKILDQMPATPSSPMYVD

[15] = target: Mitogen-activated protein kinase 12 (Homo sapiens) (UniProt P53778); test: Inhibition of human SAPK3 assessed as residual activity at 10 uM relative to control
[16] = target: Tyrosine-protein kinase Lyn (Homo sapiens) (UniProt P07948); test: Inhibition of human Lyn assessed as residual activity at 10 uM relative to control
Sequence of Tyrosine-protein kinase Lyn (Homo sapiens) (P07948 2-512 limits assumed): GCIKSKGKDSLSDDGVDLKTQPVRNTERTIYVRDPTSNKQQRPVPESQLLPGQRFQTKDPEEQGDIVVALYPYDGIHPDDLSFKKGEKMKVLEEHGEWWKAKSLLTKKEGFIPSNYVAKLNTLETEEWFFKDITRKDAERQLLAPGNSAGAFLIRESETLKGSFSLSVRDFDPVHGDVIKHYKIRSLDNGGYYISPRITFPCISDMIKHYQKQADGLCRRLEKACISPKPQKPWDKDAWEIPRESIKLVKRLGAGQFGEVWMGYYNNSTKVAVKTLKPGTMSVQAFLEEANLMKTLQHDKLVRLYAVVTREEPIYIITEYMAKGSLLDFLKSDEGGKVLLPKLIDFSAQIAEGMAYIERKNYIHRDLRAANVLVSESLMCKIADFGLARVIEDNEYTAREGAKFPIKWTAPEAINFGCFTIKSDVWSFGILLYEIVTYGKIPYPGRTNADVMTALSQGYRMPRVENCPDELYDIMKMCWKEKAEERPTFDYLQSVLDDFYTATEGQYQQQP

[17] = target: Inhibitor of nuclear factor kappa-B kinase subunit alpha (Homo sapiens) (UniProt O15111); test: Inhibition of human IKKalpha assessed as residual activity at 10 uM relative to control
[18] = target: Mitogen-activated protein kinase 14 (Homo sapiens) (UniProt Q16539); test: Inhibition of human SAPK2alpha assessed as residual activity at 10 uM relative to control
Sequence of Mitogen-activated protein kinase 14 (Homo sapiens) (Q16539 whole entry): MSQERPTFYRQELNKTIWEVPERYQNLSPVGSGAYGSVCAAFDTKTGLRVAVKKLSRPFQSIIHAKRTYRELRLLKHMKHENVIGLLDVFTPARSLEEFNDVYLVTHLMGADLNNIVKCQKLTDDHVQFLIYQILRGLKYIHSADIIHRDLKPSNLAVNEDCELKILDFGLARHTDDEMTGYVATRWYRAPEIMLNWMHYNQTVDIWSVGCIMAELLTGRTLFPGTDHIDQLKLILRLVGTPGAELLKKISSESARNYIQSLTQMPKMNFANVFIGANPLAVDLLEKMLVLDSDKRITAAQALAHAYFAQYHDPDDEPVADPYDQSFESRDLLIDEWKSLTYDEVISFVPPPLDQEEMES

[19] = target: Mitogen-activated protein kinase 11 (Homo sapiens) (UniProt Q15759); test: Inhibition of human SAPK2beta assessed as residual activity at 10 uM relative to control
[20] = target: Mitogen-activated protein kinase 9 (Homo sapiens) (UniProt P45984); test: Inhibition of human JNK2alpha2 assessed as residual activity at 10 uM relative to control
[21] = target: Tyrosine-protein kinase BTK (Homo sapiens) (UniProt Q06187); test: Inhibition of human BTK assessed as residual activity at 10 uM relative to control
Sequence of Tyrosine-protein kinase BTK (Homo sapiens) (Q06187 whole entry): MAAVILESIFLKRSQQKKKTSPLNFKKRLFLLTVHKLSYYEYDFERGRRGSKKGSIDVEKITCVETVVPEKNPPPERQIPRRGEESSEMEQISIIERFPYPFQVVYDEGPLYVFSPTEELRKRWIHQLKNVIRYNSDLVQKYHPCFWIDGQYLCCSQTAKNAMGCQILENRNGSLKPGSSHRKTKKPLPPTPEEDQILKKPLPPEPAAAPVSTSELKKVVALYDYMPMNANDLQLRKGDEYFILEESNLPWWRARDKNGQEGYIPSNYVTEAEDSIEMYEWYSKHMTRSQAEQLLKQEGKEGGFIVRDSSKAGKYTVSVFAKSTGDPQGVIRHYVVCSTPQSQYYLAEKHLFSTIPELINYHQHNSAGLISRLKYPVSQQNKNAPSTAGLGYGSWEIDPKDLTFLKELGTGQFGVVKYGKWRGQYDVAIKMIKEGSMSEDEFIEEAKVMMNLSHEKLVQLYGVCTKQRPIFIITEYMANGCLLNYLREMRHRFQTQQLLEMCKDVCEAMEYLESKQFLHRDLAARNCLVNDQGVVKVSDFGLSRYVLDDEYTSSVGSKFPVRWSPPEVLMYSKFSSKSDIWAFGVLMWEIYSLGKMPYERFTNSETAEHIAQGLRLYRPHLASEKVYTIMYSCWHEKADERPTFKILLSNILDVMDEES

Homo sapiens = organism: Homo sapiens; test: Inhibition of human PKA assessed as residual activity at 10 uM relative to control
[22] = target: T2, Receptor-type tyrosine-protein kinase FLT3 (Homo sapiens, UniProt P36888)
T2 sequence (P36888 whole entry): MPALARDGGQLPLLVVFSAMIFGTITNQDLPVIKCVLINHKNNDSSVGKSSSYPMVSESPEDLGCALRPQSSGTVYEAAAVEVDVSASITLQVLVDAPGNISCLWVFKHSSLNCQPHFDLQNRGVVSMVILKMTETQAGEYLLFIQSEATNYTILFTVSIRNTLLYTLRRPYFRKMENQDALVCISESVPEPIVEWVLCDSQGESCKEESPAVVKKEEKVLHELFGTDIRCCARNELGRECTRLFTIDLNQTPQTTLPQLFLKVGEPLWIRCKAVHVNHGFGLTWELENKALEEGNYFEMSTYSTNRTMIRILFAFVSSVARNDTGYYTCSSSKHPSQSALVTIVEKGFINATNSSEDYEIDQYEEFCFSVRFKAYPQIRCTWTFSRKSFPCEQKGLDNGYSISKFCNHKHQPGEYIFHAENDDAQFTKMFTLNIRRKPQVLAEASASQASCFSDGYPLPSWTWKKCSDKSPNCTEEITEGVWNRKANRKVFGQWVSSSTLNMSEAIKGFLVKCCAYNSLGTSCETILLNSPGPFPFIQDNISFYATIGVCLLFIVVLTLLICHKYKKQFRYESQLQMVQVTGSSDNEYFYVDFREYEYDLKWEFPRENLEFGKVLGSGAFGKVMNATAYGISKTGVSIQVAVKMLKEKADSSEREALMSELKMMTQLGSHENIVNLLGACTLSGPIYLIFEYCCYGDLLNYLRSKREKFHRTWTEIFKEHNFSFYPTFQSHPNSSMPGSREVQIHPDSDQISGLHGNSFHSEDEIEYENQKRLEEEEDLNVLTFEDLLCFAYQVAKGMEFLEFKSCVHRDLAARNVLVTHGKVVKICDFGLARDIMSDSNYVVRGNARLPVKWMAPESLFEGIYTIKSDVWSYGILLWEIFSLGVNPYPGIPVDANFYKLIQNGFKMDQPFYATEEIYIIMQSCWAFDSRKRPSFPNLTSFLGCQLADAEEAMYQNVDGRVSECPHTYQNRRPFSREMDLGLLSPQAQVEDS
Description: Inhibition of FLT3 kinase (unknown origin)

[23] = target: Tyrosine-protein kinase JAK3 (Homo sapiens) (UniProt P52333); test: Inhibition of human JAK3 assessed as residual activity at 10 uM relative to control
[24] = target: Inhibitor of nuclear factor kappa-B kinase subunit beta (Homo sapiens) (UniProt O14920); test: Inhibition of human IKKbeta assessed as residual activity at 1 uM relative to control
[25] = target: Tyrosine-protein kinase Lck (Homo sapiens) (UniProt P06239); test: Inhibition of human Lck assessed as residual activity at 10 uM relative to control
[26] = target: Tyrosine-protein kinase JAK1 (Homo sapiens) (UniProt P23458); test: Inhibition of human JAK1 assessed as residual activity at 10 uM relative to control
Sequence of Tyrosine-protein kinase JAK1 (Homo sapiens) (P23458 whole entry): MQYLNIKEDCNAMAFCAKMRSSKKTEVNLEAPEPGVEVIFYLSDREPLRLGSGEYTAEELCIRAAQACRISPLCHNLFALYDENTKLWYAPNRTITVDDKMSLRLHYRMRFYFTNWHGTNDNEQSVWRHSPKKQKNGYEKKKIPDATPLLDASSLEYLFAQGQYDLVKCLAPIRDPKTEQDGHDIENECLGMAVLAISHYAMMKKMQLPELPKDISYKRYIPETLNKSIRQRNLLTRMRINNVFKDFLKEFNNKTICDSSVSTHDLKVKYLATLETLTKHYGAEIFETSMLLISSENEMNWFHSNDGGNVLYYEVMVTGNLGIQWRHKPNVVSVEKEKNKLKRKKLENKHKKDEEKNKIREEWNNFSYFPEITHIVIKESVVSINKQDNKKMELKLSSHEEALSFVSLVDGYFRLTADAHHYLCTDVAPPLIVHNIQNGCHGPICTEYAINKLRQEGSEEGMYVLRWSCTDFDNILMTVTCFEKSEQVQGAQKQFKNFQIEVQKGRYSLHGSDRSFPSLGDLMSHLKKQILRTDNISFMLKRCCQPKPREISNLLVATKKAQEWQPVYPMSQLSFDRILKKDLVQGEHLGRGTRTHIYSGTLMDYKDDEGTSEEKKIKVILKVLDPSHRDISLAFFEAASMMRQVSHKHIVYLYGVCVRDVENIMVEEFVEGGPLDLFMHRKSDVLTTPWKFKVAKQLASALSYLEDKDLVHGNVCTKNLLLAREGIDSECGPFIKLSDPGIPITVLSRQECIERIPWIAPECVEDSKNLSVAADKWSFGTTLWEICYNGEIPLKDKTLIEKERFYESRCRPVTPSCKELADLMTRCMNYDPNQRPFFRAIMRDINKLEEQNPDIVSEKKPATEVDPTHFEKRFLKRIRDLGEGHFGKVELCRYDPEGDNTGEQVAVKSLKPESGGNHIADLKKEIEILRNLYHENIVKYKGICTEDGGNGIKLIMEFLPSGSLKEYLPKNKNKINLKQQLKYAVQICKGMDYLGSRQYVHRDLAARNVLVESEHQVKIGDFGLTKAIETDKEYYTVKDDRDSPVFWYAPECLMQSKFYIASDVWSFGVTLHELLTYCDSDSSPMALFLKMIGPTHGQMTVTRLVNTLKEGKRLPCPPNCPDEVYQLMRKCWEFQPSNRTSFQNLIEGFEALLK

[27] = target: T1, Inhibitor of nuclear factor kappa-B kinase subunit beta; remark: listed apart in the source
Description: as §2

RAW264.7 [28] = system: RAW264.7
Description: as §1

## CC1=CC(=O)N(Nc2nc(-c3cccs3)nc3scc(-c4cccc(OCCN(C)C)c4)c23)C1=O
[1]
  IC50: > 50 µM
RAW264.7 [2]
  IC50: 9880 nM
[3]
  IC50: > 50 µM
RAW264.7 [4]
  IC50: 7540 nM

## CC1=CC(=O)N(Nc2nc(-c3cccs3)nc3scc(-c4cccc(OCCN5CCCCC5)c4)c23)C1=O
[5]
  Activity: 100%
[6]
  Activity: 102%
[7]
  Activity: 108%
[8]
  Activity: 93%
[9]
  Activity: 87%
[10]
  Activity: 96%
[11]
  Activity: 4%
RAW264.7 [2]
  IC50: 2920 nM
[12]
  Activity: 94%
[13]
  Activity: 96%
[14]
  Activity: 112%
[15]
  Activity: 99%
[16]
  Activity: 81%
[17]
  Activity: 98%
[18]
  Activity: 96%
[19]
  Activity: 103%
[20]
  Activity: 117%
[21]
  Activity: 100%
Homo sapiens
  Activity: 126%
[22]
  IC50: 133 nM
[23]
  Activity: 112%
[24]
  Activity: 84%
RAW264.7 [4]
  IC50: 2150 nM
[25]
  Activity: 74%
[26]
  Activity: 111%

## CC1=CC(=O)N(Nc2nc(-c3cccs3)nc3scc(-c4ccc(O)cc4)c23)C1=O
RAW264.7 [2]
  IC50: 1320 nM
[27]
  IC50: Not Active
[22]
  IC50: 750 nM
RAW264.7 [4]
  IC50: 820 nM

## CC1=CC(=O)N(Nc2nc(-c3cccs3)nc3scc(-c4cccc(O)c4)c23)C1=O
RAW264.7 [2]
  IC50: 2670 nM
[27]
  IC50: Not Active
[22]
  IC50: 488 nM
RAW264.7 [4]
  IC50: 1230 nM

## O=C1c2ccncc2C(=O)N1Nc1ncnc2scc(-c3cccs3)c12
RAW264.7 [28]
  IC50: Not Active
RAW264.7 [4]
  IC50: > 10000 nM

## COc1ccc(-c2nc(NN3C(=O)C=C(C)C3=O)c3c(-c4cccs4)csc3n2)cc1
RAW264.7 [2]
  IC50: 1390 nM
RAW264.7 [4]
  IC50: 2790 nM

## CC1=CC(=O)N(Nc2nc(-c3ccncc3)nc3scc(-c4cccs4)c23)C1=O
RAW264.7 [2]
  IC50: > 10000 nM
RAW264.7 [4]
  IC50: 2110 nM

## CC1=CC(=O)N(Nc2nc(-c3cccs3)nc3scc(-c4ccc(OCCN5CCCCC5)cc4)c23)C1=O.Cl
RAW264.7 [2]
  IC50: 2140 nM
[27]
  IC50: Not Active
[22]
  IC50: 85 nM
RAW264.7 [4]
  IC50: 1680 nM

## COc1cccc2nc(-c3cccs3)nc(NN3C(=O)C=C(C)C3=O)c12 [AS-602868]
RAW264.7 [2]
  IC50: 3320 nM
RAW264.7 [4]
  IC50: 4410 nM

## CC1=CC(=O)N(Nc2nc(C3CC3)nc3scc(-c4cccs4)c23)C1=O
RAW264.7 [2]
  IC50: 4350 nM
RAW264.7 [4]
  IC50: 3120 nM

## CC1=CC(=O)N(Nc2ncnc3scc(-c4cccs4)c23)C1=O
RAW264.7 [2]
  IC50: > 10000 nM
RAW264.7 [4]
  IC50: 2490 nM
